Source: patent publication US20180185408A1, “ANTIFUNGAL NYLON-3 POLYMERS AND COMBINATION THERAPY USING THEM TO TREAT FUNGAL INFECTIONS” (priority 2016, published 2018)
≈ marks a conversion by molar mass, not a printed value. Where “and” joins values, the source holds several entries; their conditions need not be identical. Identical values can stand only once. Like-named read-outs stand apart in the source and are kept apart here.

How the values were obtained:
Scedosporium prolificans = experiment: MIC100 against filamentous fungi (CLSI M38-A2); format: cell-based
Aspergillus fumigatus [1] = system: Aspergillus fumigatus
Coccidioides spps. = experiment: microbe, parasite or virus in culture; format: cell-based
Paecilomyces variotii = experiment: MIC100 against filamentous fungi (CLSI M38-A2); format: cell-based
Fusarium oxysporum = experiment: MIC100 against filamentous fungi (CLSI M38-A2); format: cell-based; settings: for polymer efficacy against filamentous fungi, 100%: Clinical isolate; for MIC: Fusarium oxysporum
[2] = system: Scedosporium apoiospermum; experiment: MIC100 against filamentous fungi (CLSI M38-A2); format: cell-based; settings: for polymer efficacy against filamentous fungi, 100%: Clinical isolate
H. capsulatum = experiment: microbe, parasite or virus in culture; format: cell-based; settings: Histoplasma capsulatum
B. dermatitidis = experiment: MIC80 against dimorphic fungi (CLSI M38-A2); format: cell-based; settings: Blastomyces dermatitidis
P. carinii = experiment: Pneumocystis ATP assay (ATP-lite M); format: cell-based, Pneumocystis carinii
P. murina = experiment: Pneumocystis ATP assay (ATP-lite M); format: cell-based, Pneumocystis murina
Aspergillus spp. = experiment: microbe, parasite or virus in culture
Aspergillus fumigatus [3] = experiment: microbe, parasite or virus in culture
Aspergillus terreus [4] = settings: A. terreus; RPMI 1640 (0.2% Glucose); 1.00×10^5 cells/mL; 35° C.
Aspergillus fumigatus [5] = experiment: Checkerboard microdilution synergy (FIC); format: cell-based; settings: for MIC: Aspergillus fumigatus; for MIC azole combination: POS in combination with MM:TM
Rhizopus arrhizus = experiment: MIC100 against filamentous fungi (CLSI M38-A2); format: cell-based; settings: for polymer efficacy against filamentous fungi, 100%: Clinical isolate
P. marneffei mold = experiment: MIC by broth microdilution (EUCAST-AST-[…]); format: cell-based; settings: 1.00×10^5 cells/mL, 35° C.
Aspergillus terreus [6] = experiment: microbe, parasite or virus in culture
[7] = MM:TM with posaconazole, isolate CEA10 (Sensitive), […] 10^5 cells/mL
[8] = MM:TM with posaconazole, isolate F11628 (Resistance), […] 10^5 cells/mL
[9] = MM:TM with posaconazole, isolate F16216 (Resistance), […] 10^5 cells/mL

C[C@@H](c1ncncc1F)[C@](O)(Cn1cncn1)c1ccc(F)cc1F [VOR, voriconazole]
polymer efficacy against filamentous fungi, 100% (Scedosporium prolificans; L. prolificans LP1, Chest Wound, Clinical isolate): >16 | MIC (Scedosporium prolificans; Lomentospora prolificans, S. prolificans): > 16 µg/mL | MIC100 (Scedosporium prolificans; Scedosporium prolificans isolate LP1): >16 µg/mL | polymer efficacy against filamentous fungi, 100% (Aspergillus fumigatus [1]; A. fumigatus AF1, AF293, Lung): 1 | polymer efficacy against filamentous fungi, 100% (Aspergillus fumigatus [1]; A. fumigatus AF2, Clinical isolate, Azole resistant): 1 | polymer efficacy against filamentous fungi, 100% (Aspergillus fumigatus [1]; A. fumigatus AF3, Clinical isolate, Azole susceptible): 0.25 | MIC80 (Coccidioides spps.; Coccidioides sp. isolate Cocci 1): 0.25 µg/mL (≈ 0.716 µM) | MIC80 (Coccidioides spps.; Coccidioides sp. isolate Cocci 2): 0.125 µg/mL (≈ 0.358 µM) | MIC80 (Coccidioides spps.; Coccidioides sp. isolate Cocci 3): 0.06 µg/mL (≈ 0.172 µM) | MIC80 (Coccidioides spps.; Coccidioides sp. isolate Cocci 5): 0.125 µg/mL (≈ 0.358 µM) | MIC80 (Coccidioides spps.; Coccidioides sp. isolate Cocci 6): 0.25 µg/mL (≈ 0.716 µM) | MIC80 (Coccidioides spps.; Coccidioides sp. isolate Cocci 7): 0.125 µg/mL (≈ 0.358 µM) | MIC80 (Coccidioides spps.; Coccidioides sp. isolate Cocci 8): 0.125 µg/mL (≈ 0.358 µM) | MIC80 (Coccidioides spps.; Coccidioides sp. isolate Cocci 9): 1 µg/mL (≈ 2.86 µM) | MIC80 (Coccidioides spps.; Coccidioides sp. isolate Cocci 10): 0.06 µg/mL (≈ 0.172 µM) | polymer efficacy against filamentous fungi, 100% (Paecilomyces variotii; P. variotii QC, CLSI QC isolate for susceptibility testing): 0.125 | MIC (Paecilomyces variotii; Paecilomyces variotii, read-out: MIC100): 0.125 µg/mL (≈ 0.358 µM) | polymer efficacy against filamentous fungi, 100% (Fusarium oxysporum; F. oxysporum FO1, Blood): 4 | polymer efficacy against filamentous fungi, 100% (Fusarium oxysporum; F. oxysporum FO2, Bone): 4 | polymer efficacy against filamentous fungi, 100% (Fusarium oxysporum; F. oxysporum FO3, Blood): >16 | MIC (Fusarium oxysporum; Fusarium oxysporum isolate FO1): 4 µg/mL (≈ 11.5 µM) | MIC (Fusarium oxysporum; Fusarium oxysporum isolate FO2): 4 µg/mL (≈ 11.5 µM) | MIC (Fusarium oxysporum; Fusarium oxysporum isolate FO3): > 16 µg/mL | polymer efficacy against filamentous fungi, 100% ([2]; S. apiopsermum SA1, Toe): 1 | polymer efficacy against filamentous fungi, 100% ([2]; S. apiopsermum SA2, Elbow Tissue): 1 | MIC ([2]; Scedosporium apiopsermum isolate SA1): 1 µg/mL (≈ 2.86 µM) | MIC100 ([2]; Scedosporium apiopsermum isolate SA2): 1 µg/mL (≈ 2.86 µM) | MIC80 (H. capsulatum; Histoplasma capsulatum isolate HC1): ≤ 0.03 µg/mL | MIC80 (H. capsulatum; Histoplasma capsulatum isolate HC2): 0.25 µg/mL (≈ 0.716 µM) | MIC80 (H. capsulatum; Histoplasma capsulatum isolate HC3): 0.125 µg/mL (≈ 0.358 µM) | MIC80 (H. capsulatum; Histoplasma capsulatum isolate HC4): 0.06 µg/mL (≈ 0.172 µM) | MIC80 (H. capsulatum; Histoplasma capsulatum isolate HC5): 0.25 µg/mL (≈ 0.716 µM) | MIC80 (H. capsulatum; Histoplasma capsulatum isolate HC6): 0.125 µg/mL (≈ 0.358 µM) | MIC80 (H. capsulatum; Histoplasma capsulatum isolate HC7): 0.5 µg/mL (≈ 1.43 µM) | MIC80 (H. capsulatum; Histoplasma capsulatum isolate HC8): 0.25 µg/mL (≈ 0.716 µM) | MIC80 (H. capsulatum; Histoplasma capsulatum isolate HC9): 0.06 µg/mL (≈ 0.172 µM) | MIC80 (H. capsulatum; Histoplasma capsulatum isolate HC10): 0.06 µg/mL (≈ 0.172 µM) | MIC80 (B. dermatitidis; Blastomyces dermatitidis isolate BD1): ≤ 0.03 µg/mL | MIC80 (B. dermatitidis; Blastomyces dermatitidis isolate BD3): 0.5 µg/mL (≈ 1.43 µM)

CC1(C)S[C@@H]2[C@H](NC(=O)[C@H](N)c3ccccc3)C(=O)N2[C@H]1C(=O)O [Ampicillin]
P. carinii % reduction in ATP/vehicle control (P. carinii; 10 ug/mL, 24 hour): 12.28% | P. carinii % reduction in ATP/vehicle control (P. carinii; 10 ug/mL, 48 hr): 0% | P. carinii % reduction in ATP/vehicle control (P. carinii; 10 ug/mL, 72 hr): 2.65% | P. murina % reduction in ATP/vehicle control (P. murina; 10 ug/mL, 24 hour): 0% | P. murina % reduction in ATP/vehicle control (P. murina; 10 ug/mL, 48 hr): 0.9% | P. murina % reduction in ATP/vehicle control (P. murina; 10 ug/mL, 72 hr): 0%

CC[C@@H]([C@H](C)O)n1ncn(-c2ccc(N3CCN(c4ccc(OC[C@@H]5CO[C@@](Cn6cncn6)(c6ccc(F)cc6F)C5)cc4)CC3)cc2)c1=O [Posaconazole, posaconazole]
MIC (Aspergillus spp.): ~1 µM (≈ 0.701 µg/mL) | MIC (Aspergillus fumigatus [3]; 48 h, A. fumigatus AF293, visually, 1 × 10^5 cells/mL, 35° C.): 2 µg/mL and 2.9 µM | MIC (Aspergillus fumigatus [3]; 48 h, A. fumigatus CEA10, visually, 1 × 10^5 cells/mL, 35° C.): 0.5 µg/mL and 0.7 µM | MIC (Aspergillus fumigatus [3]; 48 h, A. fumigatus F11628, visually, 1 × 10^5 cells/mL, 35° C.): > 32 µg/mL and > 45.7 µM | MIC (Aspergillus fumigatus [3]; 48 h, A. fumigatus F16216, visually, 1 × 10^5 cells/mL, 35° C.): 1.7 µg/mL and 2.5 µM | MIC (Aspergillus fumigatus [3]; A. fumigatus AF293): 2.9 µM | MIC (Aspergillus fumigatus [3]; A. fumigatus AF293, RPMI 1640 (0.2% Glucose), 1.00×10^5 cells/mL, 35° C.): 2 µg/mL | MIC (Aspergillus fumigatus [3]; A. fumigatus AF293, RPMI 1640 (2% Glucose), 1.00×10^5 cells/mL, 35° C.): 1 µg/mL | MIC (Aspergillus fumigatus [3]; A. fumigatus CEA10): 0.7 µM | MIC (Aspergillus fumigatus [3]; A. fumigatus CEA10, RPMI 1640 (0.2% Glucose), 1.00×10^5 cells/mL, 35° C.): 0.5 µg/mL | MIC (Aspergillus fumigatus [3]; A. fumigatus CEA10, RPMI 1640 (2% Glucose), 1.00×10^5 cells/mL, 35° C.): 0.5 µg/mL | MIC (Aspergillus fumigatus [3]; A. fumigatus F11628): > 45.6 µM | MIC (Aspergillus fumigatus [3]; A. fumigatus F11628, RPMI 1640 (0.2% Glucose), 1.00×10^5 cells/mL, 35° C.): > 32 µg/mL | MIC (Aspergillus fumigatus [3]; A. fumigatus F11628, RPMI 1640 (2% Glucose), 1.00×10^5 cells/mL, 35° C.): > 32 µg/mL | MIC (Aspergillus fumigatus [3]; A. fumigatus F16216): 2.5 µM | MIC (Aspergillus fumigatus [3]; azole resistant strain F11628): > 45 µM | MIC (Aspergillus fumigatus [3]; strain F16216): 2.5 µM | MIC (Aspergillus terreus [4]): 1.0 µg/mL (≈ 1.43 µM) | FICazole (Aspergillus fumigatus [5]; 08-12-12-13 Cyp51 [TR34/L98H], POS with MM:TM): 1.000 | FICazole (Aspergillus fumigatus [5]; 08-31-08-91 Cyp51 [TR34/L98H], POS with MM:TM, listed as POS): 0.500 and 0.250 | FICazole (Aspergillus fumigatus [5]; 08-36-03-25 Cyp51 [TR34/L98H], POS with MM:TM, listed as POS): 0.500 and 0.474 | FICazole (Aspergillus fumigatus [5]; 12-7505220 Cyp51 [TR34/L98H], POS with MM:TM, listed as POS): 0.240 and 0.263 | FICazole (Aspergillus fumigatus [5]; AF293, POS with MM:TM): 0.21 | FICazole (Aspergillus fumigatus [5]; AF293, POS with MM:TM, listed as POS): 0.25 | MIC (Aspergillus fumigatus [5]; 48 h, CEA10, MM:TM with Posaconazole, single agent, 48 h, read-out: MIC Alone): 0.7 µM | MIC (Aspergillus fumigatus [5]; 48 h, CEA10, POS as single agent, 35° C.): 0.75 µg/mL | MIC (Aspergillus fumigatus [5]; 48 h, F11628, POS as single agent, 35° C.): 48 µg/mL and 68.5 µM | MIC (Aspergillus fumigatus [5]; 48 h, F16216, POS as single agent, 35° C.): 2 µg/mL and 2.85 µM | MIC (Aspergillus fumigatus [5]; [7]): 0.5 µg/mL | MIC (Aspergillus fumigatus [5]; [8]): 48 µg/mL | MIC (Aspergillus fumigatus [5]; [9]): 1.75 µg/mL | MIC Combined (Aspergillus fumigatus [5]; CEA10, MM:TM with Posaconazole in combination, 48 h): 0.1 µM | MIC azole combination (Aspergillus fumigatus [5]; CEA10, 48 h, 35° C., listed as POS): 0.13 μg/mL and 0.19 μM | FICazole (Aspergillus fumigatus [5]; CEA10, POS with MM:TM, listed as POS): 0.173 and 0.250 and 0.200 | FICazole (Aspergillus fumigatus [5]; D5 Cyp51 [G54E], POS with MM:TM, listed as POS): 0.125 and 0.063 | FICazole (Aspergillus fumigatus [5]; D7 Cyp51 [WT], POS with MM:TM): 0.263 | MIC azole combination (Aspergillus fumigatus [5]; F11628, 48 h, 35° C.): 0.13 µM | FICazole (Aspergillus fumigatus [5]; F11628, POS with MM:TM, listed as POS): 0.002 and 0.001 | MIC azole combination (Aspergillus fumigatus [5]; F16216, 48 h, 35° C.): 2.14 µM | FICazole (Aspergillus fumigatus [5]; [7]): 0.200 | FICazole (Aspergillus fumigatus [5]; [8]): 0.001 | FICazole (Aspergillus fumigatus [5]; [9]): 0.571 | increase in efficacy in the presence of MM:TM (Aspergillus fumigatus [5]; azole-resistant strain F11628): > 600 fold | polymer efficacy against filamentous fungi, 100% (Rhizopus arrhizus; R. arrhizus RA1, Nose Tissue): 0.5 | polymer efficacy against filamentous fungi, 100% (Rhizopus arrhizus; R. arrhizus RA2, Tissue Upper Extremity): 0.5 | polymer efficacy against filamentous fungi, 100% (Rhizopus arrhizus; R. arrhizus RA3, Palate Tissue): 0.5 | MIC (Rhizopus arrhizus; Rhizopus arrhizus isolate RA1): 0.5 µg/mL (≈ 0.713 µM) | MIC100 (Rhizopus arrhizus; Rhizopus arrhizus isolate RA2): 0.5 µg/mL (≈ 0.713 µM) | MIC100 (Rhizopus arrhizus; Rhizopus arrhizus isolate RA3): 0.5 µg/mL (≈ 0.713 µM) | MIC (P. marneffei mold; RPMI 1640 (0.2% Glucose)): 0.5 µg/mL (≈ 0.713 µM) | MIC (P. marneffei mold; Talaromyces marneffei, RPMI 1640 (2% Glucose), read-out: MIC): 0.5 µg/mL (≈ 0.713 µM) | MIC (Aspergillus terreus [6]): 1.4 µM and 1 µg/mL | MIC (Aspergillus terreus [6]; 48 h): 1 µg/mL and 1.4 µM

N=C(N)c1ccc(OCCCCCOc2ccc(C(=N)N)cc2)cc1 [Pentamidine]
P. carinii % reduction in ATP/vehicle control (P. carinii; 1 ug/mL, 24 hour): 86.79% | P. carinii % reduction in ATP/vehicle control (P. carinii; 1 ug/mL, 48 hr): 87.62% | P. carinii % reduction in ATP/vehicle control (P. carinii; 1 ug/mL, 72 hr): 95.23% | P. murina % reduction in ATP/vehicle control (P. murina; 1 ug/mL, 24 hour): 90.80% | P. murina % reduction in ATP/vehicle control (P. murina; 1 ug/mL, 48 hr): 84.39% | P. murina % reduction in ATP/vehicle control (P. murina; 1 ug/mL, 72 hr): 91.86%
